Results from US4492711A, “Benzamides, their salts, and pharmaceutical compositions containing them” (SANOFI, priority 1982, dated 1985).

Experiments:
[1] = molecular target: T1, gastric histamine H2 receptors (Rattus norvegicus, UniProt P25102); test: Antagonism of gastric hypersecretion induced by histamine in the atropinized rat (Ghosh and Schild modified according to Black et al.); type: in vivo; conditions: intravenous; for Relative potency (cimetidine = 1): ID50-based, compared to cimetidine; for ED50: single dose, histamine i.v. infusion 15 mcmol/kg/hour, read-out: ID50 (dose which inhibits by 50% the gastric hypersecretion induced by histamine)
T1 construct: the gastric secretion is measured by perfusion of a physiological solution at a constant speed in the stomach of the animal; from tissue; host or cells: stomach of the living atropinized rat (in vivo, perfused stomach)
T1 sequence (P25102 whole entry, the tested form may be a part): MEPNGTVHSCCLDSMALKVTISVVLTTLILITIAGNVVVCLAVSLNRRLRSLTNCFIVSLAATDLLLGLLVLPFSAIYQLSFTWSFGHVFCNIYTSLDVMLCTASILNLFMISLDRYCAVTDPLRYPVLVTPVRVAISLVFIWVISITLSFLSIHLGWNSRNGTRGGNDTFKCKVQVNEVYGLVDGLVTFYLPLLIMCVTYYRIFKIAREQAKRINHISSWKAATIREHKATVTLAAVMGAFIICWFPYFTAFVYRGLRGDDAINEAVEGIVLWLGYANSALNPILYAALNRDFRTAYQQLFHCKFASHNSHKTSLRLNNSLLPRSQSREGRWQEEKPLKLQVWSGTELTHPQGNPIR
Experimental: According to this test, a gastric acid hypersecretion is induced by intravenous infusion of a sub-maximal dose of histamine equivalent to 15 mcmol/kg/hour and the gastric secretion is measured by perfusion of a physiological solution at a constant speed in the stomach of the animal.
The ID50 represents the index of the gastric H2 -blocking action.

gastric acid secretion = conditions: as oxalate; cited from earlier work
[2] = test system: hypersecretion induced by dimaprit; test: Antisecretory activity in the cat bearing a gastric fistula, dimaprit-induced hypersecretion (Emas et al.); type: in vivo; conditions: cat with gastric fistula, intragastric
Description: The antisecretoy activity of the products of the present invention has been evaluated in the cat bearing a gastric fistula according to the method of Emas et al (Gastroenterology, 1960, 39, 771) by using, as hypersecretory agent, dimaprit at the dose of 640 mcg/kg/k.

Row | Relative potency (cimetidine = 1) [1] | ED50 [1] [µmol/kg] | Compound | ED50, gastric acid secretion inhibiting activity in the rat (gastric acid secretion) [mg/kg] | antagonism of the hypersecretion induced by dimaprit ([2]; an hour before dimaprit perfusion (640 mcg/kg/k)) | activity relative to cimetidine against hypersecretion induced by dimaprit ([2]; an hour before dimaprit perfusion, cimetidine as reference)
1 | 0.42 | – | CN(C)Cc1ccc(CSCCNC(=O)c2ccc(S(N)(=O)=O)cc2)o1 [Compound A, N-[2-(5-dimethylaminomethylfuran-2-ylmethylthio)ethyl]4-sulfamoylbenzamide, reference compound] | 2.54 | – | –
2 | 2.11 | 0.45 | CNC(=S)Nc1cccc(C(=O)NCCSCc2ccc(CN(C)C)o2)c1 [SR 57914, 3-(3-methylthioureido)-N-[2-(5-dimethylaminomethylfuran-2-ylmethylthio)ethyl]benzamide] | – | antagonizes in dose depending way the hypersecretion induced by dimaprit | at least equal to that of cimetidine
3 | 0.62 | 1.53 | CNC(=O)Nc1cccc(C(=O)NCCSCc2ccc(CN(C)C)o2)c1 [SR 57934, 3-(3-methylureido)-N-[2-(5-dimethylaminomethylfuran-2-ylmethylthio)ethyl]benzamide] | – | – | –
4 | 1.90 | 0.5 | CNC(=NC#N)Nc1cccc(C(=O)NCCSCc2ccc(CN(C)C)o2)c1 [SR 57970, 3-(2-cyano-3-methylguanidino)-N-[2-(5-dimethylaminomethylfuran-2-ylmethylthio)ethyl]benzamide] | – | – | –
5 | 4.13 | 0.23 | CNC(=C[N+](=O)[O-])Nc1cccc(C(=O)NCCSCc2ccc(CN(C)C)o2)c1 [SR 58028 A, 3-[N-(1-methylamino-2-nitroethenyl)amino]-N-[2-(5-dimethylaminomethylfuran-2-ylmethylthio)ethyl]benzamide] | – | – | –

Row | Compound | Relative potency (cimetidine = 1) [1] | ED50 [1] [µmol/kg] | ED50, gastric acid secretion inhibiting activity in the rat (gastric acid secretion) [mg/kg] | antagonism of the hypersecretion induced by dimaprit ([2]; an hour before dimaprit perfusion (640 mcg/kg/k)) | activity relative to cimetidine against hypersecretion induced by dimaprit ([2]; an hour before dimaprit perfusion, cimetidine as reference)
6 | CNC(=C[N+](=O)[O-])NCCSCc1ccc(CN(C)C)o1 [Ranitidine, N-[2-[[5-[(dimethylamino)methyl]furfuryl]thio]ethyl]-N'-methyl-2-nitro-1,1-ethenediamine, reference compound] | 3.80 | – | – | – | –
